Target: T1, ROCKα/ROCKII (Homo sapiens, UniProt O75116)
T1 construct: purchased Upstate Biotechnology 14-451
Experiment: ROCK inhibition, Method 2 fluorescence polarization (FP) assay, ROCK IMAP Kit
Assay type: biochemical
Conditions: 10 μM ATP, read-out: IC50 Meth. 2
Method: The inhibition assays were performed with a fluorescence polarization (FP) assay using the commercially available ROCK IMAP Kit from Molecular Devices (Product ID. No. R8093), essentially in accordance with the protocol supplied by the manufacturer. […] The enzyme mix ROCKα/ROCKII was obtained from Upstate Biotechnology (Product ID No 14-451).
In summary, all compounds were screened in the wells of a 384 well plate for enzymatic inhibition with concentrations varying from 100 μM to 0.3 nM using a stepwise 3 (or 2)-fold dilution.
To perform the assay, 1 μl of a solution of the compound to be tested in DMSO (at each concentration) was added to 2 μl of a solution of the enzyme in 10 mM Tris-HCl, 10 mM MgCl2, 0.1% BSA, 0.05% NaN3, pH 7,2. The final concentration of the enzyme was 2.6 nM.
After incubating for 30 minutes at RT, 2 μl of a mixture of ATP and the protein substrate in 10 mM Tris-HCl, 10 mM MgCl2, 0.1% BSA, 0.05% NaN3, pH 7.2 was added. The final concentration of the ATP was 10 μM and final concentration of protein substrate was 0.2 μM.
After incubating for 60 minutes at RT, 12 μl of the IMAP Binding Solution (mix of the IMAP Binding Buffer A (1×) and the IMAP Binding Reagent (from the ROCK IMAP kit)) was added.
The mixture thus obtained (total volume: 17 μl) was incubated for 60 minutes at RT, upon which the fluorescence polarization was measured using an automated plate reader (Perkin Elmer, Model Envision 2100-0010 HTS) with FP filters: excitation filter FITC FP 480 and emission filters FITC FP P-pol 535 and FITC FP S-pol 535 (Perkin-Elmer). The results were fitted to a curve using the XL-Fit algorithm and IC50 values were calculated for each fitted curve, again using the XL-Fit algorithm.

T1 sequence (O75116 whole entry): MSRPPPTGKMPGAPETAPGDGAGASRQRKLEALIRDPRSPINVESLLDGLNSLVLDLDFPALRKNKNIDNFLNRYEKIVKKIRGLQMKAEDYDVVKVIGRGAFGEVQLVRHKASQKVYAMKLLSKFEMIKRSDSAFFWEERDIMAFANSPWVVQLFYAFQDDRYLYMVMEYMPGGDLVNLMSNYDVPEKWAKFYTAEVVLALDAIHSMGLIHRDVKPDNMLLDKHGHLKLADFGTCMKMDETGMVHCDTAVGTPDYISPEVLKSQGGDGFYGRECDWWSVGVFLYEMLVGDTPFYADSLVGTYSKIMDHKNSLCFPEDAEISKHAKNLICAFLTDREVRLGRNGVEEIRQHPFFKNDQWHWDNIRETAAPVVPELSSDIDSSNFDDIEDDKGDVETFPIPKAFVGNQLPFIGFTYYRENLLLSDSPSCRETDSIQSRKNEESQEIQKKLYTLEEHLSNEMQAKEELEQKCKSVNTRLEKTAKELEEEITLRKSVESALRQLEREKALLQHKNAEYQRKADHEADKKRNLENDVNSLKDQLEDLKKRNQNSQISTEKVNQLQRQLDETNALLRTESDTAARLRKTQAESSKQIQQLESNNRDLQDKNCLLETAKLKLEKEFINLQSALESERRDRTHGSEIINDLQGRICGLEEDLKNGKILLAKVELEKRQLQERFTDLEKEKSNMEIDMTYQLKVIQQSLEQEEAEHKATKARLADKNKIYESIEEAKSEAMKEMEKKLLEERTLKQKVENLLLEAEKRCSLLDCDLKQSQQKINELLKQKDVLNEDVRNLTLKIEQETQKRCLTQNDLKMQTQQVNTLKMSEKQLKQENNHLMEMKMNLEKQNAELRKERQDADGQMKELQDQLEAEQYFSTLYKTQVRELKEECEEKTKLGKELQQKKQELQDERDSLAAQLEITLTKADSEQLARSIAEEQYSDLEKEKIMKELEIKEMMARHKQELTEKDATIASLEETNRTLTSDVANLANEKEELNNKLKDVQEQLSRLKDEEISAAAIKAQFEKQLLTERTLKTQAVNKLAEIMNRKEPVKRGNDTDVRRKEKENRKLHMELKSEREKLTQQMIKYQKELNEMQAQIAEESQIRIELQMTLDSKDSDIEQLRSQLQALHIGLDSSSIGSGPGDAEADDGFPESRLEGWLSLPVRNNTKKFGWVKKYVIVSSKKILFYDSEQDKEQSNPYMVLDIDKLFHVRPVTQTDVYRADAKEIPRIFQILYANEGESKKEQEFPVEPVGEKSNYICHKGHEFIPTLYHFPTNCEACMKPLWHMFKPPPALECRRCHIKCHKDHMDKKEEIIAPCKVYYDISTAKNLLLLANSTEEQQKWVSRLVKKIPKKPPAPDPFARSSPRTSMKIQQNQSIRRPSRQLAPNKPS

IC50 [nM] | Compound
100 to 1000 | COc1cccc(OC)c1OC(=O)c1cccc(-c2cc(C(=O)Nc3ccncc3)ccc2C(C)N)c1 (stereo not drawn) [Compound 74, 2′-(1-Amino-ethyl)-5′-(pyridin-4-ylcarbamoyl)-biphenyl-3-carboxylic acid 2,6-dimethoxy-phenyl ester]
100 to 1000 | C=CCCCCCCCCOC(=O)c1cccc(-c2cc(C(=O)Nc3ccncc3)ccc2C(C)N)c1 (stereo not drawn) [Compound 25, 2′-(1-Amino-ethyl)-5′-(pyridin-4-ylcarbamoyl)-biphenyl-3-carboxylic acid dec-9-enyl ester]
< 100 | CC#CCOC(=O)c1cccc(-c2cc(C(=O)Nc3ccncc3)ccc2C(C)N)c1 (stereo not drawn) [Compound 59, 2′-(1-Amino-ethyl)-5′-(pyridin-4-ylcarbamoyl)-biphenyl-3-carboxylic acid but-2-ynyl ester]
< 100 | CC(N)c1ccc(C(=O)Nc2ccncc2F)cc1-c1cccc(C(=O)OCCO)c1 (stereo not drawn) [Compound 67, 2′-(1-Amino-ethyl)-5′-(3-fluoro-pyridin-4-ylcarbamoyl)-biphenyl-3-carboxylic acid 2-hydroxy-ethyl ester]
< 100 | CC(N)c1ccc(C(=O)Nc2ccncc2)cc1-c1cccc(C(=O)OC2CCCCC2)c1 (stereo not drawn) [Compound 34, 2′-(1-Amino-ethyl)-5′-(pyridin-4-ylcarbamoyl)-biphenyl-3-carboxylic acid cyclohexyl ester]
100 to 1000 | CC(N)c1ccc(C(=O)Nc2ccncc2)cc1-c1cccc(C(=O)OCC2COc3ccccc3O2)c1 (stereo not drawn) [Compound 56, 2′-(1-Amino-ethyl)-5′-(pyridin-4-ylcarbamoyl)-biphenyl-3-carboxylic acid 2,3-dihydro-benzo[1,4]dioxin-2-ylmethyl ester]
< 100 | COc1ccc(OC(=O)c2cccc(-c3cc(C(=O)Nc4ccncc4)ccc3C(C)N)c2)c(OC)c1OC (stereo not drawn) [Compound 81, 2′-(1-Amino-ethyl)-5′-(pyridin-4-ylcarbamoyl)-biphenyl-3-carboxylic acid 2,3,4-trimethoxy-phenyl ester]
100 to 1000 | CCCOC(=O)COc1cccc(-c2cc(C(=O)Nc3ccncc3F)ccc2C(C)N)c1 (stereo not drawn) [Compound 141, [2′-(1-Amino-ethyl)-5′-(3-fluoro-pyridin-4-ylcarbamoyl)-biphenyl-3-yloxy]-acetic acid propyl ester]
100 to 1000 | CCCOC(=O)c1cccc(-c2cc(C(=O)Nc3ccncc3F)ccc2CN)c1 [Compound 174]
1000 to 10000 | CCCCCCCCCCOC(=O)c1cccc(-c2cc(C(=O)Nc3ccncc3)ccc2C(C)N)c1 (stereo not drawn) [Compound 20, 2′-(1-Amino-ethyl)-5′-(pyridin-4-ylcarbamoyl)-biphenyl-3-carboxylic acid decyl ester]
< 100 | NCc1ccc(C(=O)Nc2ccncc2F)cc1-c1cccc(C(=O)Oc2ccccc2)c1 [Compound 175]
< 100 | CC(N)c1ccc(C(=O)Nc2ccncc2)cc1-c1cccc(C(=O)OC2CCCC2)c1 (stereo not drawn) [Compound 33, 2′-(1-Amino-ethyl)-5′-(pyridin-4-ylcarbamoyl)-biphenyl-3-carboxylic acid cyclopentyl ester]
100 to 1000 | CC(N)c1ccc(C(=O)Nc2ccncc2)cc1-c1cccc2[nH]c(C(=O)Oc3ccccc3)cc12 (stereo not drawn) [Compound 173, 4-[2-(1-Amino-ethyl)-5-(pyridin-4-ylcarbamoyl)-phenyl]-1H-indole-2-carboxylic acid phenyl ester]
100 to 1000 | CC(N)c1ccc(C(=O)Nc2ccncc2)cc1-c1cccc(C(=O)OCc2c(F)c(F)c(F)c(F)c2F)c1 (stereo not drawn) [Compound 83, 2′-(1-Amino-ethyl)-5′-(pyridin-4-ylcarbamoyl)-biphenyl-3-carboxylic acid pentafluoro-phenylmethyl ester]
100 to 1000 | CC(N)c1ccc(C(=O)Nc2ccncc2F)cc1-c1cccc(OCC(=O)Oc2ccccc2)c1 (stereo not drawn) [Compound 142, [2′-(1-Amino-ethyl)-5′-(3-fluoro-pyridin-4-ylcarbamoyl)-biphenyl-3-yloxy]-acetic acid phenyl ester]
< 100 | COc1ccc(OC(=O)c2cccc(-c3cc(C(=O)Nc4ccncc4F)ccc3C(C)N)c2)cc1OC (stereo not drawn) [Compound 78, 2′-(1-Amino-ethyl)-5′-(3-fluoro-pyridin-4-ylcarbamoyl)-biphenyl-3-carboxylic acid 3,4-dimethoxy-phenyl ester]

IC50 [nM] | Compound
< 100 | CC(N)c1ccc(C(=O)Nc2ccncc2)cc1-c1cccc(C(=O)NC2CCSC2=O)c1 (stereo not drawn) [Compound 112, 6-(1-Amino-ethyl)-biphenyl-3,3′-dicarboxylic acid 3′-[(2-oxo-tetrahydro-thiophen-3-yl)-amide] 3-pyridin-4-ylamide]
< 100 | CC(N)c1ccc(C(=O)Nc2ccncc2)cc1-c1cccc(C(=O)OCCCCCl)c1 (stereo not drawn) [Compound 69, 2′-(1-Amino-ethyl)-5′-(pyridin-4-ylcarbamoyl)-biphenyl-3-carboxylic acid 4-chloro-butyl ester]
< 100 | COc1ccc(OC(=O)c2cccc(-c3cc(C(=O)Nc4ccncc4)ccc3C(C)N)c2)cc1OC (stereo not drawn) [Compound 77, 2′-(1-Amino-ethyl)-5′-(pyridin-4-ylcarbamoyl)-biphenyl-3-carboxylic acid 3,4-dimethoxy-phenyl ester]
< 100 | CC(N)c1ccc(C(=O)Nc2ccncc2)cc1-c1cccc(C(=O)Oc2ccc(F)cc2)c1 (stereo not drawn) [Compound 72, 2′-(1-Amino-ethyl)-5′-(pyridin-4-ylcarbamoyl)-biphenyl-3-carboxylic acid 4-fluoro-phenyl ester]
< 100 | CCOC(=O)CSCC(=O)Nc1cccc(-c2cc(C(=O)Nc3ccncc3)ccc2C(C)N)c1 (stereo not drawn) [Compound 154, {[2′-(1-Aminoethyl)-5′-(pyridin-4-ylcarbamoyl)-biphenyl-3-ylcarbamoyl]-methylsulfanyl}-acetic acid ethyl ester]
100 to 1000 | CC(N)c1ccc(C(=O)Nc2ccncc2F)cc1-c1cccc(C(=O)OCCF)c1 (stereo not drawn) [Compound 61, 2′-(1-Amino-ethyl)-5′-(3-fluoro-pyridin-4-ylcarbamoyl)-biphenyl-3-carboxylic acid 2-fluoro-ethyl ester]
100 to 1000 | CC(N)c1ccc(C(=O)Nc2ccncc2)cc1-c1cccc(C(=O)OCCc2cccs2)c1 (stereo not drawn) [Compound 91, 2′-(1-Amino-ethyl)-5′-(pyridin-4-ylcarbamoyl)-biphenyl-3-carboxylic acid 2-thiophen-2-yl-ethyl ester]
< 100 | CC(N)c1ccc(C(=O)Nc2ccncc2)cc1-c1cccc(C(=O)OCCc2ccccn2)c1 (stereo not drawn) [Compound 93, 2′-(1-Amino-ethyl)-5′-(pyridin-4-ylcarbamoyl)-biphenyl-3-carboxylic acid 2-pyridin-2-yl-ethyl ester]
100 to 1000 | CCCCCCCCOC(=O)c1cccc(-c2cc(C(=O)Nc3ccncc3)ccc2C(C)N)c1 (stereo not drawn) [Compound 19, 2′-(1-Amino-ethyl)-5′-(pyridin-4-ylcarbamoyl)-biphenyl-3-carboxylic acid octyl ester]
100 to 1000 | CC(N)c1ccc(C(=O)Nc2ccncc2)cc1-c1cccc(C(=O)OCCc2ccccc2)c1 (stereo not drawn) [Compound 87, 2′-(1-Amino-ethyl)-5′-(pyridin-4-ylcarbamoyl)-biphenyl-3-carboxylic acid phenethyl ester]
< 100 | CSc1ccc(OC(=O)c2cccc(-c3cc(C(=O)Nc4ccncc4)ccc3C(C)N)c2)cc1 (stereo not drawn) [Compound 82, 2′-(1-Amino-ethyl)-5′-(pyridin-4-ylcarbamoyl)-biphenyl-3-carboxylic acid 4-methylsulfanyl-phenyl ester]
< 100 | CC(N)c1ccc(C(=O)Nc2ccncc2)cc1-c1cccc(C(=O)OCC2CC2)c1 (stereo not drawn) [Compound 36, 2′-(1-Amino-ethyl)-5′-(pyridin-4-ylcarbamoyl)-biphenyl-3-carboxylic acid cyclopropylmethyl ester]
< 100 | CCOC(=O)CCNC(=O)c1cccc(-c2cc(C(=O)Nc3ccncc3)ccc2C(C)N)c1 (stereo not drawn) [Compound 105, 3-{[2′-(1-Amino-ethyl)-5′-(pyridin-4-ylcarbamoyl)-biphenyl-3-carbonyl]-amino}-propionic acid ethyl ester]
< 100 | CC(N)c1ccc(C(=O)Nc2ccncc2)cc1-c1cccc(C(=O)OCCCl)c1 (stereo not drawn) [Compound 62, 2′-(1-Amino-ethyl)-5′-(pyridin-4-ylcarbamoyl)-biphenyl-3-carboxylic acid 2-chloro-ethyl ester]
1000 to 10000 | CCCCCCCCCCCCCCCCOC(=O)c1cccc(-c2cc(C(=O)Nc3ccncc3)ccc2C(C)N)c1 (stereo not drawn) [Compound 24, 2′-(1-Amino-ethyl)-5′-(pyridin-4-ylcarbamoyl)-biphenyl-3-carboxylic acid hexadecyl ester]

Compound | IC50 [nM]
2′-(1-Amino-ethyl)-5′- (pyridin-4-ylcarbamoyl)- biphenyl-3-carboxylic acid 4-methylsulfanyl-phenyl ester [Compound 86] | < 100
2′-(1-Amino-ethyl)-5′- (pyridin-4-ylcarbamoyl)- biphenyl-3-carboxylic acid 2-(toluene-4-sulfonyl)-ethyl ester [Compound 89] | 100 to 1000
